Here are results for one compound from patent publication USRE34918E, “Azaazulene compounds which are useful as antiallergic and antiinflammatory agents” (Kaken Pharmaceutical Co., Ltd., priority 1988, dated 1995).

One data set can be described thus: Acute toxicity in mouse. The data set is classed as in vivo. As to conditions: 2 weeks observation. As for the experimental part:
The test was carried out with the compounds obtained in Examples 5 and 9. Groups of 5 male ddy mice weighing 26 to 28 g were employed. The test compounds were suspended in a 0.5% CMC aqueous solution and the resulting suspension was administered orally in an amount of 500 for the compound obtained in Example 9, 1000 or 2000 mg/kg body weight. The survivors were kept under observation daily for 2 weeks. From the results shown in Table 6, the LD50 of the compounds obtained in Example 5 and 9 were estimated to be more than 2000 mg/kg. The other compounds of the present invention also had the same toxicity as the above compounds.

Data set [1] relates to smooth musculus trachealis. As to the kind of experiment: Relaxant activity of smooth musculus trachealis in guinea pig. Details: species or system guinea pig (male Hartley). To be noted: Cavia porcellus; tracheal chain strips, 37° C.; read-out: Concentration for 50% relaxation. As for the experimental part: Male Hartley guinea pigs weighing 350 to 550 g were bleed to death, and immediately the tracheae were extirpated. According to the method of Takagi et al [cf. Chem. Pharm. Bull., 8, 716 (1958)], tracheal chain strips was prepared, and the sample was suspended on Magnus apparatus under addition of load of 0.5 g. The test was carried out at 37° C. of liquid temperature. After position of tonus was examined with histamine (10^-6 g/ml) and isoproterenol (10^-7 g/ml), the test compound dissolved in a mixture of dimethyl sulfoxide and physiological saline was added thereto, and the test compound was investigated with respect to the effect on smooth musculus trachealis. Theophylline was used as a positive comparative drug. The relaxation and the contraction of smooth musculus trachealis were recorded on servocorder (SR 6342: commercially available from Watanabe Instruments Corp.) by connecting Isotonic Transducer (TD-1125: commercially available from Nihon Kohden Kogyo Co., Ltd.) to a balancing box.

The subject of data set [2] is PCA (homologous passive cutaneous anaphylaxis) in rat. Description: Inhibitory activity against PCA in rat. The data set is classed as in vivo, rat (male Slc: Wistar). To be noted: Rattus norvegicus; 5 mg/kg oral, 1 hour before antigen challenge; read-out: Inhibition rate against PCA. On the procedure:
An anti-dinitrophenylated-ovalbumin (hereinafter referred to as "anti-DNP-OVA") rat antiserum having 800 of PCA titer in homologous passive cutaneous anaphylaxis reaction in rats for 48 hours, was diluted 200 times with physiological saline, and diluted antiserum was injected intradermally into back of groups of 5 male Slc: Wistar rats weighing 130-150 g in a volume of 50 μl/site to be passively sensitized. After 48 hours, 0.6 ml of 1% (w/v) Evans blue solution containing 1.5 mg of antigen DNP-OVA was administered intravenously into the tail. Thirty minutes later, the rats were bled to death and skin of the rats was removed. According to the method of Katayama et al [Microbiol. […] The test compound was suspended in 0.5% (w/v) aqueous solution of carboxymethylcellulose (hereinafter referred to as "CMC"), the suspension was administered orally in a ratio of 5 mg/kg 1 hour before challenging an antigen.
Inhibition rate against PCA was calculated according to the following equation. [formula] M: Amount of leaked pigment in antibody-sensitized site under administration of CMC without the test compound
S: Amount of leaked pigment in antibody-sensitized site under administration of the test compound in CMC
B: Amount of leaked pigment in antibody-nonsensitized site

In another data set the target is T1, 5-lipoxygenase (Cavia porcellus, UniProt A0A286X958).
T1 construct: 5-lipoxygenase was prepared with polymorphonuclear leukocyte obtained from peritoneal cavity; endogenous in cells; host or cells: guinea pig peritoneal polymorphonuclear leukocytes (casein-elicited)
T1 sequence (A0A286X958 1-674): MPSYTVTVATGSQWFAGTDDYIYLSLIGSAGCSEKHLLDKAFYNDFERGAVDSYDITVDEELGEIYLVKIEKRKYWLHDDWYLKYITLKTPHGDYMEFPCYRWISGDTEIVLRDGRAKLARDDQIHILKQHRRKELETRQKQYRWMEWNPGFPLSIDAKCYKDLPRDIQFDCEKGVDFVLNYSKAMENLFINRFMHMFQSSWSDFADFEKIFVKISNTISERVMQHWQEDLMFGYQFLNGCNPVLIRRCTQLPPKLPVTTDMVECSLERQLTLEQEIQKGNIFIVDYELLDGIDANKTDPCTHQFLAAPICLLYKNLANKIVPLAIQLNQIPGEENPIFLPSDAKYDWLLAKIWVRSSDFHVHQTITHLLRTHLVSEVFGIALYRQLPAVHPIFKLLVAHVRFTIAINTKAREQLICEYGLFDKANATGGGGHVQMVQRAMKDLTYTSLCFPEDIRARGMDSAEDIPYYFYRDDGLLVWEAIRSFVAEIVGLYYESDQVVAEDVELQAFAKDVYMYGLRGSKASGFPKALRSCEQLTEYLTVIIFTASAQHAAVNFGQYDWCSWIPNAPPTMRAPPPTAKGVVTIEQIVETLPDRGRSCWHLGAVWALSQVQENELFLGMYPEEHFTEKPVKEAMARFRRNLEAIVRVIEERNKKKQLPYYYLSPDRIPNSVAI
As to the kind of experiment: 5-lipoxygenase inhibiting activity in guinea pig. To be noted: read-out: Inhibition rate against 5-lipoxygenase activity. The data set is classed as biochemical. On the procedure: The test was carried out according to the method of Ochi [cf. J. Biol. Chem., 258, 5754-5758 (1983)]. Two % casein solution in saline was injected intraperitoneally into guinea pigs in an amount of 1/10 of body weight. After 16 hours, 5-lipoxygenase was prepared with polymorphonuclear leukocyte obtained from peritoneal cavity. Test compound and 5-lipoxygenase were pre-incubated at 30° C. for 10 minutes, CaCl2 (calcium chloride) and ^14 C-arachidonic acid were added thereto, and the resulting mixture was incubated for 20 minutes. A mixture of ethyl acetate/methanol/0.2M citric acid=30/4/1 (by volume) was added thereto to stop the reaction. After centrifugation, the organic solvent layer was spotted on a plate for thin layer chromatography and developed. Effect of the test compound was determined from the amount of ^14 C-5-hydroxyeicosatetraenoic acid (hereinafter referred to as "5-HETE") formed from ^14 C-arachidonic acid. Radioactivity of 5-HETE position was measured with a liquid scintillation counter.
Inhibition rate against 5-lipoxygenase activity was calculated according to the following equation.
Inhibition rate against 5-lipoxygenase activity [formula] A: Value of radioactivity in the control group B: Value of radioactivity in the test compound group
Each test compound was used in a concentration of 10 μM.

Each structure is given as a SMILES string. Values after ≈ are worked out from the molar mass of the structure shown.

In general, LD50 refers to the dose at which mortality reaches 50%. Low readings indicate a more toxic substance, high ones a less toxic substance. Broadly, the inhibition is the drop in the measured response relative to a control, in per cent. For `CC(C)c1cccc2n(Cc3ccc(F)cc3)c(=O)c(-c3nnn[nH]3)c-2c1` [Example 9, 1-(4-Fluorobenzyl)-5-iso-propyl-3-(5-tetrazolyl)-1-azaazulane-2-one], the Mortality in “Acute toxicity in mouse” (500 mg/kg p.o.), in “Acute toxicity in mouse” (1000 mg/kg p.o.) and in “Acute toxicity in mouse” (2000 mg/kg p.o.) was 0/5 throughout. Also, in the data set “Acute toxicity in mouse” (mouse, in vivo, oral), the LD50 at 336 h is more than 2000 mg/kg. The EC50 in data set [1] was 8.6 µg/mL (≈ 23.7 µM). For the same compound, the inhibition in vivo at 5 mg/kg in data set [2] was 84.9 ± 2.2%. Moreover, the inhibition at 10 µM at 5-lipoxygenase was -5.4%.
